Experiments:
HT29 cells = assay: MTS cell viability assay, colon cancer cells HT29; type: cell-based, human; conditions: for effect of pretreatment on NSC735847-mediated cell death: HT29, MTS, pretreatment with the agent, then NSC735847 (10 μM; 5 μM for HTF) 24 h; for IC50: Homo sapiens, HT-29, MTS viability, 24 h treatment; for selective cytotoxicity toward colon cancer cells vs FHC: HT-29/HCT-116 compared to FHC
Experimental: (§1) The human colon cancer cell lines HT29 and HCT116 were cultured in McCoy's 5A medium (Sigma Aldrich, St. Louis, MO) containing 10% heat-inactivated fetal bovine serum (FBS), penicillin (100 units/ml), and streptomycin (100 μg/ml). The non-tumorigenic colon cell line, FHC, was cultured in DMEM: F12 (1:1) medium supplemented with 10% heat inactivated FBS, 25 mM HEPES (Thermo Fisher Scientific Inc., IL), 10 ng/ml cholera toxin (Sigma Aldrich, St. Louis, MO), 0.005 mg/ml insulin (Thermo Fisher Scientific Inc., IL), 0.005 mg/ml, transferrin (Sigma Aldrich, St. Louis, MO), 100 ng/ml hydrocortisone (Sigma Aldrich, St. Louis, MO), 20 ng/mL human recombinant epidermal growth factor (Thermo Fisher Scientific Inc., IL), 100 units/ml penicillin, and 100 μg/ml streptomycin.
(§2) Cells were cultured in 96-well-plates for 48 h before treatment. Serum-free media containing different agents was added to the cells at the concentration and time period described in the figure legend. MTS reagent (Promega, Madison, WI) was then added to each well and the absorbance was measured at 495 nm as directed by the manufacturer. In the presence of MTS reagent, the absorbance reading is proportional to the number of viable cells. The half-maximal inhibitory concentration (IC50) of the tested compounds is the concentration that reduces the viability of cells by 50%. IC50 was calculated after 24 h of treatment ([30], [31]) as described previously ([32]–[34]) from dose-response curves (log drug concentration vs. percentage viability from untreated cells) generated by non-linear regression analysis with GraphPad Prism 5 software (GraphPad Software, San Diego, California).

[1] = tested on: reactive oxygen species in HT29 cells; assay: Oxidative stress measurement with CM-H2DCFDA (DCF); type: cell-based, human; conditions: HT29, 0.25 mM Trolox 2 h, then 10 μM NSC735847 8 h
Experimental: Oxidative stress was measured in cultured cells by using the probe, chloromethyl-2′,7′ dichlorodihydrofluorescein diacetate (CM-H2DCFDA or DCF) purchased from Life Technologies (Grand Island, NY). […] The cells were loaded with 5 μM DCF in phenol red-free, serum-free medium for 30 min and then the cells were treated with the appropriate drug for the indicated period of time. The cells were then trypsinized and resuspended in serum-containing, phenol red-free medium. The fluorescence of DCF was measured using an Accuri C6 flow cytometer (BD Accuri Cytometers, Ann Arbor, MI) at an excitation wavelength of 488 and emission of 533 ± 30 nm.

[2] = tested on: caspase 3/7 activity in HT29 cells; assay: Caspase-Glo 3/7 activity assay in HT29; type: cell-based, human; conditions: for effect of pretreatment on NSC735847-induced caspase 3/7 activity: HT29, pretreatment 1 h (GSK 10 μM, SAL 50 μM), then 10 μM NSC735847 16 h; for tumor selectivity of apoptosis induction (caspase 3/7, words): 16 h, HT29 compared to HCT-116 and FHC
Experimental: The cells were plated in white-walled 96-well-plates and then they were cultured at 37°C for 48 h. Serum-free culture medium containing the appropriate concentration of different agents was added to the cells for the indicated period of time. Caspase-Glo 3/7 reagent (Promega, Madison, WI) was added to each well and luminescence was detected as directed by the manufacturer. The Caspase-Glo 3/7 kit measures the activity of the executioner caspases 3 and 7 using the luminogenic substrate (Z-DEVD-aminoluciferin) as substrate.

[3] = tested on: P-PERK, P-eIF2α, CHOP10, PARP, caspase-3, ferritin in HT29 cells; assay: Western blot of ER stress and apoptosis proteins in HT29; type: cell-based, human; conditions: for effect of pretreatment on NSC735847-induced CHOP10 expression: HT29, pretreatment (GSK 10 μM, salubrinal 50 μM, SA 10 mM), then 10 μM NSC735847 8 h
Experimental: Western blot analysis was conducted as described previously ([35]). Briefly, the cells were cultured in 100 mm dishes for 48 h before treatment. The cells were then treated as described in the figure legends. For vehicle-treated samples, DMSO was added to serum-free culture medium at a maximum concentration of 0.1% (v/v). After experimentation, the cells were washed twice with phosphate buffer saline (PBS) and then 100 μl of Triton lysis buffer [25 mM HEPES, 100 mM NaCl, 1 mM EDTA, 10% (v/v) glycerol, 1% (v/v) Triton X-100], containing protease and […] inhibitors, was added to the cells. Protein concentrations were determined by using BCA reagents (Thermo Fisher Scientific Inc., IL). Equal concentrations of each sample were loaded onto SDS–PAGE gels and protein bands transferred to nitrocellulose membranes using semi-dry transfer cells (TRANS-BLOTSD; Bio-Rad Laboratories, Hercules, CA). The membranes were incubated for 2 h at room temperature in Odyssey blocking buffer (LI-COR Biosciences, Lincoln, NE). Membranes were then incubated overnight at 4C with primary antibody followed by 1 h of incubation at room temperature with secondary antibody. All primary antibodies were used at a dilution of 1:1,000 except anti-GAPDH and anti-CHOP10 antibodies which were used at 1:10,000 and 1:500 dilutions, respectively. All secondary antibodies were used at a dilution of 1:15,000. Protein bands were visualized using Odyssey® CLx digital fluorescence imaging system (LI-COR, Lincoln, Nebraska). Band intensities were quantified by using ImageJ software ([36]).

FHC cells = assay: MTS cell viability assay, non-tumorigenic colon cells; type: cell-based; conditions: Homo sapiens, 24 h treatment
Experimental: as §1, §2

HCT116 cells = assay: MTS cell viability assay, colon cancer cells HCT116; type: cell-based, human; conditions: for IC50: Homo sapiens, HCT-116, MTS viability, 24 h treatment; for cytotoxic activity against HCT-116 cells: 3.1-25 μM
Experimental: as §1, §2

[4] = MTS, 24 h, single agents or combinations

For Cc1c(C)c2c(c(C)c1O)CCC(C)(C(=O)O)O2 (stereo not drawn) [Trolox, reference compound], the “effect of pretreatment on NSC735847-mediated cell death” value (HT29 cells) was “did not rescue the cells from NSC735847-induced cytotoxicity” and the “effect of pretreatment on NSC735847-induced oxidative stress” value [1] was “significant reduction in oxidative stress”.
O=C(/C=C/c1ccccc1)NC(NC(=S)Nc1cccc2cccnc12)C(Cl)(Cl)Cl (stereo not drawn) [salubrinal, reference compound] was tested, and the “effect of pretreatment on NSC735847-mediated cell death” value (HT29 cells) was “blocked”, the “effect of pretreatment on NSC735847-induced caspase 3/7 activity” value [2] was “blocked” and the “effect of pretreatment on NSC735847-induced CHOP10 expression” value [3] was “blocked CHOP10 expression”.
Cn1cc(-c2ccc3c(c2)CCN3C(=O)Cc2cccc(C(F)(F)F)c2)c2c(N)ncnc21 [GSK2606414, 7-methyl-5-(1-{[3-(trifluoromethyl)phenyl]acetyl}-2,3-dihydro-1H-indol-5-yl)-7H-p yrrolo[2,3-d]pyrimidin-4-amine, reference compound] was tested, and the “effect of pretreatment on NSC735847-mediated cell death” value (HT29 cells) was “suppressed NSC735847-mediated cell death”, the “effect of pretreatment on NSC735847-induced caspase 3/7 activity” value [2] was “inhibited caspase 3/7 activity” and the “effect of pretreatment on NSC735847-induced PERK phosphorylation” value ([3]; HT29, 10 μM pretreatment 1 h, then 10 μM NSC735847 1 h) was “decreased the phosphorylation of PERK”. For the same compound, the “effect of pretreatment on NSC735847-induced CHOP10 expression” value [3] was “decreased”.
With CC1CCC2C(C)C(OCC(COC3OC4OC5(C)CCC6C(C)CCC(C3C)C46OO5)NCc3ccccc3)OC3OC4(C)CCC1C32OO4 (stereo not drawn) [(5)] the IC50 (FHC cells) was over 25 µM, the IC50 (HT29 cells) was 15.2 ± 1.12 µM and the “selective cytotoxicity toward colon cancer cells vs FHC” value (HT29 cells; MTS, 24 h) was “more cytotoxic toward HT-29 than FHC cells”. For the same compound, the IC50 (HCT116 cells) was over 25 µM, the “cytotoxic activity against HCT-116 cells” value (HCT116 cells; MTS, 24 h) was “inactive” and the “tumor selectivity of apoptosis induction (caspase 3/7, words)” value (“tumor selectivity of apoptosis induction” for short) [2] was “preferentially induced apoptosis in HT-29 compared to FHC cells”.
With CC1CCC2C(C)C(OCC(COC3OC4OC5(C)CCC6C(C)CCC(C3C)C46OO5)NNC(=O)c3ccncc3)OC3OC4(C)CCC1C32OO4 (stereo not drawn) [compound (2)] the IC50 (FHC cells) was 23.2 ± 1.04 µM, the IC50 (HT29 cells) was 19.6 ± 1.06 µM and the “selective cytotoxicity toward colon cancer cells vs FHC” value (HT29 cells; MTS, 24 h) was “not selectively cytotoxic toward either colon cancer cell line”. For the same compound, the IC50 (HCT116 cells) was 22.1 ± 1.06 µM and the “tumor selectivity of apoptosis induction” value [2] was “increase in apoptosis in HT29 compared to HCT-116 and FHC cells”.
With O=C1[O][Pt]2([NH][C@@H]3CCCC[C@H]3[NH]2)[O]C1=O [OX, oxaliplatin, reference compound] the “cell death / survival of HT29 cells” value (HT29 cells; [4]) was “induced death in a concentration-dependent manner” and the “cell death / survival of HCT116 cells” value (HCT116 cells; [4]) was “induced death in a concentration-dependent manner”.
For CC1CCC2C(C)C(OCC(COC3OC4OC5(C)CCC6C(C)CCC(C3C)C46OO5)N3CCOCC3)OC3OC4(C)CCC1C32OO4 (stereo not drawn) [compound (1)], the IC50 (FHC cells) was over 25 µM, the IC50 (HT29 cells) was over 25 µM and the “selective cytotoxicity toward colon cancer cells vs FHC” value (HT29 cells; MTS, 24 h) was “not selectively cytotoxic toward either colon cancer cell line”. For the same compound, the IC50 (HCT116 cells) was over 25 µM and the “tumor selectivity of apoptosis induction” value [2] was “did not exhibit tumor selectivity”.
With CC(=O)CC(=O)CCC(=O)O [succinylacetone, reference compound] the “effect of pretreatment on NSC735847-mediated cell death” value (HT29 cells) was “rescued the cells from the cytotoxic effects of NSC735847” and the “effect of pretreatment on NSC735847-induced CHOP10 expression” value [3] was “blunted NSC735847-induced CHOP10 expression”.
With CC(=O)N(O)CCCCCNC(=O)CCC(=O)N(O)CCCCCNC(=O)CCC(=O)N(O)CCCCCN [DFO, deferoxamine, reference compound] the “effect of pretreatment on NSC735847-mediated cell death” value (HT29 cells) was “did not prevent NSC735847-mediated cell death” and the “effect of pretreatment on NSC735847-mediated ferritin protein expression” value ([3]; HT29, 100 μM DFO 4 h, then 10 μM NSC735847 24 h) was “inhibited NSC735847-mediated ferritin expression”.
O=C(CC(c1ccccc1)c1ccccc1)Cn1ccnc1 [QC-308, reference compound] was tested, and the “effect of pretreatment on NSC735847-mediated cell death” value (HT29 cells) was “increased the cytotoxicity of NSC735847”.
For HTF: iron-loaded transferrin molecule, the “effect of pretreatment on NSC735847-mediated cell death” value (HT29 cells) was “did not enhance the killing effect of NSC735847”.
CC1CCC2C(C)C(OCC(COC3OC4OC5(C)CCC6C(C)CCC(C3C)C46OO5)N3CCCCC3)OC3OC4(C)CCC1C32OO4 (stereo not drawn) [(4)] was tested, and the IC50 (FHC cells) was over 25 µM, the IC50 (HT29 cells) was over 25 µM and the “selective cytotoxicity toward colon cancer cells vs FHC” value (HT29 cells; MTS, 24 h) was “more cytotoxic toward HT-29 than FHC cells”. For the same compound, the IC50 (HCT116 cells) was over 25 µM, the “cytotoxic activity against HCT-116 cells” value (HCT116 cells; MTS, 24 h) was “inactive” and the “tumor selectivity of apoptosis induction” value [2] was “preferentially induced apoptosis in HT-29 compared to FHC cells”.
